According to patent publication US10781236B2, “Bacteriocin composition and method” (priority 2015, dated 2020):

How the values were obtained:
[1] = system: Clostridium bifermentans LMGT 2519; assay: Relative MIC, inhibitory spectrum; type: cell-based; conditions: relative to L. lactis IL 1403 = 1
[2] = system: Enterococcus avium LMGT 3465; assay: Relative MIC, inhibitory spectrum; type: cell-based; conditions: relative to L. lactis IL 1403 = 1
E. faecium LMGT 2763 = assay: Relative MIC, inhibitory spectrum; type: cell-based, Enterococcus faecium; conditions: relative to L. lactis IL 1403 = 1
E. faecium LMGT 2876 = assay: Relative MIC, inhibitory spectrum; type: cell-based, Enterococcus faecium; conditions: relative to L. lactis IL 1403 = 1
L. curvatus LMGT 2355 = assay: Relative MIC, inhibitory spectrum; type: cell-based, Lactobacillus curvatus; conditions: relative to L. lactis IL 1403 = 1
L. curvatus LMGT 2371 = assay: Relative MIC, inhibitory spectrum; type: cell-based, Lactobacillus curvatus; conditions: relative to L. lactis IL 1403 = 1
L. plantarum LMGT 2003 = assay: Relative MIC, inhibitory spectrum; type: cell-based, Lactobacillus plantarum; conditions: relative to L. lactis IL 1403 = 1
L. plantarum LMGT 2357 = assay: Relative MIC, inhibitory spectrum; type: cell-based, Lactobacillus plantarum; conditions: relative to L. lactis IL 1403 = 1
L. plantarum LMGT 2358 = assay: Relative MIC, inhibitory spectrum; type: cell-based, Lactobacillus plantarum; conditions: relative to L. lactis IL 1403 = 1
L. Sakei LMGT 2361 = assay: Relative MIC, inhibitory spectrum; type: cell-based, Lactobacillus sakei; conditions: relative to L. lactis IL 1403 = 1
L. lactis IL1403 = assay: Relative MIC, inhibitory spectrum; type: cell-based, Lactococcus lactis; conditions: the reference indicator, referred to as 1
L. lactis LMGT 2705 = assay: Relative MIC, inhibitory spectrum; type: cell-based, Lactococcus lactis; conditions: relative to L. lactis IL 1403 = 1
L. innocua LMGT 2785 = assay: Relative MIC, inhibitory spectrum; type: cell-based, Listeria innocua; conditions: relative to L. lactis IL 1403 = 1
L. ivanovii LMGT 2813 = assay: Relative MIC, inhibitory spectrum; type: cell-based, Listeria ivanovii; conditions: relative to L. lactis IL 1403 = 1
Staph. Aureus = assay: Antimicrobial activity against problematic bacteria; type: cell-based, Staphylococcus aureus
Procedure: (§1) To screen for bacteriocin producers with broad inhibition spectra (BIS), Lactococcus lactis, Lactobacillus sakei, Lactobacillus plantarum, Listeria innocua, and Staphylococcus aureus from the food and dairy environment were used as indicators in the first round of screening. The antimicrobial screening was performed using the agar diffusion bioassay as previously described (Holo et al., 1991, J. Bacteriol., 173, p 3879-3887). Briefly, indicator cells from overnight cultures were diluted 100-fold in 5 mL of BHI soft agar and plated out as a lawn on BHI agar plates. Potential bacteriocin producers at volumes of 3 μL were spotted on the indicator lawn and then incubated at appropriate temperatures for 24 h for cell growth and cell inhibition. Inhibition was detected as clear zones around the spotted cells.
As the antimicrobial activity of garvicin KS is relatively broad, we explored further its potential to kill a larger panel of important pathogens. The list contained 147 problematic or potentially problematic bacteria of species belonging to Listeria, Staphylococcus, Streptococcus and Enterococcus, isolated from food and clinical sources. In this assay, we compared the antimicrobial activity of garvicin KS with that of garvicin ML and nisin, the last one being known as a broad inhibition-spectrum bacteriocin (AIKhatib et al., 2014, PLOS One 9:e102246 doi:10.1371/joumal.pone.0102246). […]

[3] = system: 147 problematic or potentially problematic bacteria of Listeria, Staphylococcus, Streptococcus and Enterococcus; assay: Antimicrobial activity against problematic bacteria, whole panel; type: cell-based; conditions: for number of sensitive strains / number of strains tested: Total
Procedure: as §1
As the antimicrobial activity of garvicin KS is relatively broad, we explored further its potential to kill a larger panel of important pathogens. The list contained 147 problematic or potentially problematic bacteria of species belonging to Listeria, Staphylococcus, Streptococcus and Enterococcus, isolated from food and clinical sources. In this assay, we compared the antimicrobial activity of garvicin KS with that of garvicin ML and nisin, the last one being known as a broad inhibition-spectrum bacteriocin (AIKhatib et al., 2014, PLOS One 9:e102246 doi:10.1371/joumal.pone.0102246). […] In all cases, garvicin KS was either equal or better than nisin, regardless of whether the isolates were from clinical or food environments, except for the activity toward clinical isolates of S. aureus where nisin appeared marginally better (24/25 for nisin and 23/25 for KS).

Question: garvicin ML was tested. Which “Relative MIC value” [1] did it give?
Answer: 16-32

Question: And the “Relative MIC value” [2]?
Answer: ≤0.25

Question: What about the “Relative MIC value” (E. faecium LMGT 2763) of the same substance?
Answer: 32-64

Question: What about the “Relative MIC value” (E. faecium LMGT 2876) of the same substance?
Answer: 64-128

Question: And the “Relative MIC value” (L. curvatus LMGT 2355)?
Answer: 2-4

Question: What about the “Relative MIC value” (L. curvatus LMGT 2371) of the same substance?
Answer: 32

Question: And the “Relative MIC value” (L. plantarum LMGT 2003)?
Answer: 64

Question: And the “Relative MIC value” (L. plantarum LMGT 2357)?
Answer: 64

Question: What about the “Relative MIC value” (L. plantarum LMGT 2358) of the same substance?
Answer: 512

Question: And the “Relative MIC value” (L. Sakei LMGT 2361)?
Answer: 32

Question: And the “Relative MIC value” (L. lactis IL1403)?
Answer: 1

Question: And the “Relative MIC value” (L. lactis LMGT 2705)?
Answer: ≤0.25

Question: And the “Relative MIC value” (L. innocua LMGT 2785)?
Answer: 32

Question: What about the “Relative MIC value” (L. ivanovii LMGT 2813) of the same substance?
Answer: 32

Question: And the “number of sensitive strains / number of strains tested” value (Staph. Aureus; clinical sources)?
Answer: 9/25

Question: And the “number of sensitive strains / number of strains tested” value (Staph. Aureus; food sources)?
Answer: 4/28

Question: And the “portion of the 147 strains killed” value ([3]; 147 strains, clinical and food)?
Answer: 34.6%

Question: What about the “strains killed among the 147 strains tested” value ([3]; 147 strains, clinical and food) of the same substance?
Answer: 51 strains

Question: And the “number of sensitive strains / number of strains tested” value ([3]; clinical sources)?
Answer: 12/34

Question: What about the “number of sensitive strains / number of strains tested” value ([3]; food sources) of the same substance?
Answer: 39/113
